Starred links: 1 amine or outer side, 2 acyl side, 3 side chain; linkers in the order of their positions; H or OH if unused. Positions of bridges follow the written chain, without caps; N, C: chain ends. Non-standard residues stand in square brackets, D forms with d. Residues, ends and D or L forms follow the SMILES beside them. Ala(1H-tetrazol-5-yl) = N[C@@H](Cc1nnn[nH]1)C(=O)O; Trp(7-aza) = N[C@@H](Cc1c[nH]c2ncccc12)C(=O)O; Phe(3-Cl) = N[C@@H](Cc1cccc(Cl)c1)C(=O)O; mXylylene = c1cc(C[*:1])cc(C[*:2])c1; dPhg = N[C@@H](C(=O)O)c1ccccc1; Chg = N[C@H](C(=O)O)C1CCCCC1; Phg = N[C@H](C(=O)O)c1ccccc1; Tle = CC(C)(C)[C@H](N)C(=O)O; NMeS = CN[C@@H](CO)C(=O)O; Nva = CCC[C@H](N)C(=O)O; Sar = CNCC(=O)O
The compounds below were run against C5 (Homo sapiens, UniProt P01031) (assay: Human hemolysis assay (RBC lysis assay using complete human sera)). Details: inhibition of lysis of antibody-sensitized sheep erythrocytes, complete human sera.
Chain of C5 (P01031 19-1676): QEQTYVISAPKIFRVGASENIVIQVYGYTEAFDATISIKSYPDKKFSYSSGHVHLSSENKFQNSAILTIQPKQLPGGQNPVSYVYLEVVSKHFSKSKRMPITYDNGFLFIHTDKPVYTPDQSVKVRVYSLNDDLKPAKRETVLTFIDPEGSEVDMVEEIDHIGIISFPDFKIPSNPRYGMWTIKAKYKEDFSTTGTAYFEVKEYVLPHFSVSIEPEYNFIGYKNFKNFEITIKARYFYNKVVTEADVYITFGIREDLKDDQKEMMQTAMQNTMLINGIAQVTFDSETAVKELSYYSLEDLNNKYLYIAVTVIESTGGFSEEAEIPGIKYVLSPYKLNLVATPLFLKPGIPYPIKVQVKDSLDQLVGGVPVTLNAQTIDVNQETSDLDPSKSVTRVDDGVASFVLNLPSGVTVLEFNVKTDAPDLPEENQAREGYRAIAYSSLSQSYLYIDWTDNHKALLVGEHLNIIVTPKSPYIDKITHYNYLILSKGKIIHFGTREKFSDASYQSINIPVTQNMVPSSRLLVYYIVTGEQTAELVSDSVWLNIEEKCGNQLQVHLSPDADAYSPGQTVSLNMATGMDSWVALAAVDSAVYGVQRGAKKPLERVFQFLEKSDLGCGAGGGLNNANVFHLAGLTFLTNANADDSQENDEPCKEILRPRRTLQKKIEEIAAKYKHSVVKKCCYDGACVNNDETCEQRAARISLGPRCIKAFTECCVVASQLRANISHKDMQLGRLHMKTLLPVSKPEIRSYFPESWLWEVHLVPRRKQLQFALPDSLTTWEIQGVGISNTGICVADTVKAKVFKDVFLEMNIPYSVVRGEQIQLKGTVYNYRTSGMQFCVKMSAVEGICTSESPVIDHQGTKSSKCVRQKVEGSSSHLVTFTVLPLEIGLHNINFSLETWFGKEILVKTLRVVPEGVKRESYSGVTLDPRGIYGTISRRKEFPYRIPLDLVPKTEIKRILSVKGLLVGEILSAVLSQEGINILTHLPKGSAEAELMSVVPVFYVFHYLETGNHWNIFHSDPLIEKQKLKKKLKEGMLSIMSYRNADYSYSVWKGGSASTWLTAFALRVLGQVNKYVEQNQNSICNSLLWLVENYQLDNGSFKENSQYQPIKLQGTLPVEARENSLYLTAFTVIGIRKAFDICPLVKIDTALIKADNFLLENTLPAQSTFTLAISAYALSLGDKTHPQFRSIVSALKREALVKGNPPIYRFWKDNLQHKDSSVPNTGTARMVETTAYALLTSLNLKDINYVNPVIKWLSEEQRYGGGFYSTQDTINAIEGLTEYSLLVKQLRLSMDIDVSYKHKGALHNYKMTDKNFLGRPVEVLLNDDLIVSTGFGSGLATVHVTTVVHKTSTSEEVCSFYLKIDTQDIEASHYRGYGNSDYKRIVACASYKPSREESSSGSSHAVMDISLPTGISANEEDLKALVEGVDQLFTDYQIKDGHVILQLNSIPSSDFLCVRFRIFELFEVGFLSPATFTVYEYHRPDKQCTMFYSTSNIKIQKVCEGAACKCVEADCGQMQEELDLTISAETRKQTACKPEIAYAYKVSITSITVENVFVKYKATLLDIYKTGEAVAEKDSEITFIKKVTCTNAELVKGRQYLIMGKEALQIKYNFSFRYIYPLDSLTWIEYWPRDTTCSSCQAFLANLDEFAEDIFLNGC
Format: cell-based
Design: with complete human sera (Complement Technology, Tyler Tex.) and polypeptides; tissue Complement Technology, Tyler Tex; host or cells: complete human serum
Compound CC(=O)N[C@H]1CSCc2cccc(c2)CSC[C@@H](C(N)=O)NC(=O)[C@H](Cc2c[nH]cn2)NC(=O)[C@H](CO)N(C)C(=O)[C@H](Cc2ccc(O)cc2)NC(=O)[C@H](CCC(=O)O)NC(=O)[C@H](Cc2c[nH]c3ncccc23)NC(=O)[C@H](Cc2ccc(O)cc2)NC(=O)[C@H](C(C)(C)C)NC1=O [Compound R3016, [mXylyl(1,9)]Ac-C-Tbg-Y-azaTrp-E-Y-(N-Me)S-H-C-NH2] (Ac-C[Tle]Y[Trp(7-aza)]EY[NMeS]HC-NH2; linker 1-9 via mXylylene) has an IC50 greater than 13000 nM.
Work on CCC[C@H](NC(=O)[C@@H]1CSCc2cccc(c2)CSC[C@H](NC(=O)[C@H](CCC)NC(C)=O)C(=O)N[C@@H](c2ccccc2)C(=O)N[C@@H]([C@@H](C)O)C(=O)N[C@@H](Cc2c[nH]c3ncccc23)C(=O)N[C@@H](CCC(=O)O)C(=O)N[C@@H](Cc2cccc(Cl)c2)C(=O)N(C)[C@@H](CO)C(=O)N[C@@H](C)C(=O)N1)C(N)=O [Compound R3134, [mXylyl(2,10)]Ac-Nvl-C-Phg-T-azaTrp-E-(3-Cl-Phe)-(N-Me)S-A-C-Nvl-NH2] (Ac-[Nva]C[Phg]T[Trp(7-aza)]E[Phe(3-Cl)][NMeS]AC[Nva]-NH2; linker 2-10 via mXylylene) yielded an IC50 greater than 5000 nM.
For CCC[C@H](NC(=O)[C@@H](NC(=O)[C@@H]1CCCN1C(=O)[C@H](Cc1ccc(O)cc1)NC(=O)[C@H](CCC(=O)O)NC(=O)[C@H](Cc1c[nH]c2ncccc12)NC(=O)[C@H](Cc1ccc(O)cc1)NC(=O)[C@@H](NC(C)=O)C(C)(C)C)c1ccccc1)C(N)=O [Compound R3028, Ac-Tbg-Y-azaTrp-E-Y-P-Phg-Nvl-NH2] (Ac-[Tle]Y[Trp(7-aza)]EYP[Phg][Nva]-NH2), the IC50 was greater than 10000 nM.
CCC[C@H](NC(=O)[C@@H](NC(=O)[C@@H]1CCCN1C(=O)[C@H](Cc1ccc(O)cc1)NC(=O)[C@H](CCC(=O)O)NC(=O)[C@H](Cc1c[nH]c2ncccc12)NC(=O)[C@H](Cc1ccc(O)cc1)NC(=O)[C@@H](NC(=O)[C@H](Cc1nnn[nH]1)NC(=O)[C@@H]1CSCc2cccc(c2)CSC[C@H](NC(C)=O)C(=O)N[C@@H](C(C)C)C(=O)N[C@@H](CCC(=O)O)C(=O)N[C@@H](CCCNC(=N)N)C(=O)N[C@@H](Cc2ccccc2)C(=O)N1)C(C)(C)C)C1CCCCC1)C(N)=O [Compound R3168, [mXylyl(1,6)]Ac-C-V-E-R-F-C-Asp(T)-Tbg-Y-azaTrp-E-Y-P-Chg-Nvl-NH2] (Ac-CVERFC[Ala(1H-tetrazol-5-yl)][Tle]Y[Trp(7-aza)]EYP[Chg][Nva]-NH2; linker 1-6 via mXylylene) was tested, and the IC50 was 7.5 nM.
In the case of CCC[C@H](NC(=O)[C@@H]1CCCN1C(=O)[C@H](CCC)NC(=O)[C@@H]1CSCc2cccc(c2)CSC[C@H](NC(=O)[C@H](CCC)NC(C)=O)C(=O)N[C@@H](Cc2ccc(O)cc2)C(=O)N[C@@H](CCC(=O)O)C(=O)N(C)CC(=O)N[C@@H](C(C)(C)C)C(=O)N[C@@H](Cc2ccc(O)cc2)C(=O)N[C@@H](Cc2c[nH]c3ncccc23)C(=O)N[C@@H](CCC(=O)O)C(=O)N1)C(N)=O [Compound R3009, [mXylyl(2,10)]Ac-Nvl-C-Y-E-(N-Me)G-Tbg-Y-azaTrp-E-C-Nvl-P-Nvl-NH2] (Ac-[Nva]CYE[Sar][Tle]Y[Trp(7-aza)]EC[Nva]P[Nva]-NH2; linker 2-10 via mXylylene), the IC50 is reported as greater than 100000 nM.
For CCC[C@H](NC(=O)[C@H](NC(=O)[C@@H]1CCCN1C(=O)[C@H](Cc1ccc(O)cc1)NC(=O)[C@H](CCC(=O)O)NC(=O)[C@H](Cc1c[nH]c2ncccc12)NC(=O)[C@H](Cc1ccc(O)cc1)NC(=O)[C@@H](NC(=O)[C@H](CC(=O)O)NC(=O)[C@@H]1CSCc2cccc(c2)CSC[C@H](NC(C)=O)C(=O)N[C@@H](C(C)C)C(=O)N[C@@H](CCC(=O)O)C(=O)N[C@@H](CCCNC(=N)N)C(=O)N[C@@H](C)C(=O)N1)C(C)(C)C)c1ccccc1)C(N)=O [Compound R3156, [mXylyl(1,6)]Ac-C-V-E-R-A-C-D-Tbg-Y-azaTrp-E-Y-P-(D-Phg)-Nvl-NH2] (Ac-CVERACD[Tle]Y[Trp(7-aza)]EYP[dPhg][Nva]-NH2; linker 1-6 via mXylylene), the IC50 was greater than 10000 nM.
CCC[C@H](NC(=O)CN(C)C(=O)[C@H](Cc1ccc(O)cc1)NC(=O)[C@H](CCC(=O)O)NC(=O)[C@H](Cc1c[nH]c2ncccc12)NC(=O)[C@H](Cc1ccc(O)cc1)NC(=O)[C@@H](NC(=O)[C@H](CC(N)=O)NC(=O)[C@H](CCC(=O)O)NC(=O)[C@H](Cc1ccc(O)cc1)NC(C)=O)C(C)(C)C)C(=O)N(C)[C@@H](CO)C(N)=O [Compound R3006, Ac-Y-E-N-Tbg-Y-azaTrp-E-Y-(N-Me)G-Nvl-(N-Me)S-NH2] (Ac-YEN[Tle]Y[Trp(7-aza)]EY[Sar][Nva][NMeS]-NH2) gave an IC50 of 267 nM.
For CC(=O)N[C@H]1CSCc2cccc(c2)CSC[C@@H](C(=O)N[C@@H](CC(=O)O)C(=O)N[C@H](C(=O)N[C@@H](Cc2ccc(O)cc2)C(=O)N[C@@H](Cc2c[nH]c3ccccc23)C(=O)N[C@@H](CCC(=O)O)C(=O)N[C@@H](Cc2ccccc2)C(N)=O)C(C)C)NC(=O)[C@H](Cc2ccccc2)NC(=O)[C@H](CCCNC(=N)N)NC(=O)[C@H](CCC(=O)O)NC(=O)[C@H](C(C)(C)C)NC1=O [Compound R3146, [mXylyl(1,6)]Ac-C-Tbg-E-R-F-C-D-V-Y-W-E-F-NH2] (Ac-C[Tle]ERFCDVYWEF-NH2; linker 1-6 via mXylylene), the IC50 was 107 nM.

From patent US10208089B2, “Modulation of complement activity” (priority 2014, dated 2019)
